Data taken from patent US11572399B2, “Long-acting GIP peptide analogues” (University of Copenhagen, priority 2017, dated 2023).
pIC50: −log10 of the molar value. Peptide text beside a SMILES is read from it. * marks the point of attachment. C16 diacid = O=C(O)CCCCCCCCCCCCCCC(=O)*; Stearoyl = CCCCCCCCCCCCCCCCCC(=O)*; Palmitoyl = CCCCCCCCCCCCCCCC(=O)*

Experiments:
human GIP receptor [1] = target: T1, human GIP receptor (Homo sapiens, UniProt P48546); assay: 125I-human GIP competition binding assay, in the presence and absence of 2% HSA; conditions: for Fold change HSA (2%)/Casein (0.1%): IC50 (plus HSA)/IC50 (minus HSA); for Binding (+/−HSA) Fold: fold change +HSA/−HSA; for Binding fold (paired): fold decrease in affinity compared to GIP(3-30)NH2; for Fold change in affinity, IC50 (plus HSA)/IC50 (minus HSA): presence vs absence of 2% HSA, proxy for albumin binding;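 as to all read-outs here: nonspecific binding taken as radioligand bound to untransfected cells, IC50 obtained from nonlinear regression fits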
T1 construct: host or cells: COS-7, transient transfection (calcium phosphate), cDNA in pCMV-Script
T1 sequence (P48546 22-466): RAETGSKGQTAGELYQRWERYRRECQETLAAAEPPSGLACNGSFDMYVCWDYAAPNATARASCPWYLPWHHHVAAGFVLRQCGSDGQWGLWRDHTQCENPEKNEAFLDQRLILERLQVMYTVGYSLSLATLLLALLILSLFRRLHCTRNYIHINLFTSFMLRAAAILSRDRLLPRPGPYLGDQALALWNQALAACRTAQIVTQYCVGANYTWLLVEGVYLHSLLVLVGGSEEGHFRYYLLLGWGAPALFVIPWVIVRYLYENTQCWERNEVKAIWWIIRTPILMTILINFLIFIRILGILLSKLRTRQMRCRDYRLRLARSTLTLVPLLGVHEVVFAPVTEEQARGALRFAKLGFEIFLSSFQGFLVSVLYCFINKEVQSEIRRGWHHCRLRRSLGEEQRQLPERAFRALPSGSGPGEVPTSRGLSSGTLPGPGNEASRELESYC

human GIP receptor [2] = target: T1, human GIP receptor; assay: cAMP accumulation assay, agonism (ligand alone); type: cell-based; conditions: COS-7 cells, Table 1; for Emax: COS-7, intrinsic cAMP activity; for EC50: read-out: cAMP agonism nM (EC50)
human GIP receptor [3] = target: T1, human GIP receptor; assay: cAMP accumulation assay, antagonism of a GIP-mediated cAMP response (50-80% of max); type: cell-based; conditions: for Fold change of IC50 versus GIP(5-30)NH2: fold change of IC50 from GIP(5-30)NH2; for IC50: transiently transfected COS-7 cells, Table 1 and text, read-out: cAMP antagonism nM (IC50, antagonistic potency); for cAMP - antagonisme fold (paired): fold vs GIP(3-30)NH2, Table 3b
Description: The day after, the cells were washed twice with Hepes buffered saline (HBS) buffer and incubated with HBS and 1 mM 3-isobutyl-1-methylxanthine (IBMX) for 30 min at 37° C. […] The HitHunter™ cAMP XS assay (DiscoveRx) was carried out according to the manufacturer's instructions.

[4] = binding in 0.1% casein (absence of HSA), log value, read-out: logIC50 0.1% casein (converted)
[5] = heterologous competition binding, transiently transfected COS-7 cells expressing the human GIP receptor, read-out: Binding
[6] = 0.1% casein, no HSA, Table 3b, read-out: Binding logIC50 0.1% casein (converted)
[7] = 2% HSA, Table 3b, read-out: Binding logIC50 2% HSA (converted)
[8] = Table 3b, initial data, read-out: Binding IC50

| Compound | Fold change HSA (2%)/Casein (0.1%) (human GIP receptor [1]) | IC50 (human GIP receptor [1]; [4]) | pIC50 (human GIP receptor [1]; [5]) | Emax (human GIP receptor [2]) | Ability to antagonize the GIP-mediated cAMP response (in words) (human GIP receptor [3]) | Ki (human GIP receptor [1]; absence of HSA) | IC50 (human GIP receptor [1]; binding in presence of 2% HSA, read-out: logIC50 2% HSA (converted)) | Binding (+/−HSA) Fold (human GIP receptor [1]) | Fold change of IC50 versus GIP(5-30)NH2 (human GIP receptor [3]) | IC50 (human GIP receptor [3]) | IC50 (human GIP receptor [1]; [6]) | IC50 (human GIP receptor [1]; [7]) | pIC50 (human GIP receptor [1]; [8]) | Binding fold (paired) (human GIP receptor [1]; Table 3b) | Fold change in affinity, IC50 (plus HSA)/IC50 (minus HSA) (human GIP receptor [1]) | cAMP - antagonisme fold (paired) (human GIP receptor [3]) | Ki (human GIP receptor [1]; presence of 2% HSA) | EC50 (human GIP receptor [2]) | pIC50 (human GIP receptor [3]; antagonism of GIP-mediated cAMP response, COS-7 cells, read-out: cAMP accumulation IC50) |
| --- | --- | --- | --- | --- | --- | --- | --- | --- | --- | --- | --- | --- | --- | --- | --- | --- | --- | --- | --- |
| CC[C@H](C)[C@H](NC(=O)[C@H](CO)NC(=O)[C@H](Cc1ccc(O)cc1)NC(=O)[C@H](CC(=O)O)NC(=O)[C@H](CO)NC(=O)[C@@H](NC(=O)[C@H](Cc1ccccc1)NC(=O)[C@@H](NC(=O)CCCCCCCCCCCCCCCCC(=O)O)[C@@H](C)O)[C@@H](C)CC)C(=O)N[C@@H](C)C(=O)N[C@@H](CCSC)C(=O)N[C@@H](CC(=O)O)C(=O)N[C@@H](CCCCN)C(=O)N[C@H](C(=O)N[C@@H](Cc1c[nH]cn1)C(=O)N[C@@H](CCC(N)=O)C(=O)N[C@@H](CCC(N)=O)C(=O)N[C@@H](CC(=O)O)C(=O)N[C@@H](Cc1ccccc1)C(=O)N[C@H](C(=O)N[C@@H](CC(N)=O)C(=O)N[C@@H](Cc1c[nH]c2ccccc12)C(=O)N[C@@H](CC(C)C)C(=O)N[C@@H](CC(C)C)C(=O)N[C@@H](C)C(=O)N[C@@H](CCC(N)=O)C(=O)N[C@@H](CCCCN)C(N)=O)C(C)C)[C@@H](C)CC [AT138, [hGIP(5-30)NH2—C18diacid/5]] | 3.8 | 2510 nM | 5.58 | 0% | failed to antagonize | – | – | – | – | – | – | – | – | – | – | – | – | – | – |
| CC[C@H](C)[C@H](NC(=O)[C@H](CO)NC(=O)[C@H](Cc1ccc(O)cc1)NC(=O)[C@H](CC(=O)O)NC(=O)[C@H](CO)NC(=O)[C@@H](NC(=O)[C@H](Cc1ccccc1)NC(=O)[C@@H](N)[C@@H](C)O)[C@@H](C)CC)C(=O)N[C@@H](C)C(=O)N[C@@H](CCSC)C(=O)N[C@@H](CC(=O)O)C(=O)N[C@@H](CCCCNC(=O)CCCCCCCCCCCCCCC(=O)O)C(=O)N[C@H](C(=O)N[C@@H](Cc1c[nH]cn1)C(=O)N[C@@H](CCC(N)=O)C(=O)N[C@@H](CCC(N)=O)C(=O)N[C@@H](CC(=O)O)C(=O)N[C@@H](Cc1ccccc1)C(=O)N[C@H](C(=O)N[C@@H](CC(N)=O)C(=O)N[C@@H](Cc1c[nH]c2ccccc12)C(=O)N[C@@H](CC(C)C)C(=O)N[C@@H](CC(C)C)C(=O)N[C@@H](C)C(=O)N[C@@H](CCC(N)=O)C(=O)N[C@@H](CCCCN)C(N)=O)C(C)C)[C@@H](C)CC [AT140, [hGIP(5-30)NH2—C16diacid/16]] | 1.5 | 2000 nM | 5.67 | 0% | – | 2160 nM | 3280 nM | 1.5 | 7.4 | 205 nM | – | – | – | – | – | – | – | – | – |
| CCCCCCCCCCCCCCCC(=O)NCCCC[C@H](NC(=O)[C@@H](NC(=O)[C@H](CCCCN)NC(=O)[C@H](CC(=O)O)NC(=O)[C@H](CC(C)C)NC(=O)[C@H](C)NC(=O)[C@@H](NC(=O)[C@H](CO)NC(=O)[C@H](Cc1ccc(O)cc1)NC(=O)[C@H](CC(=O)O)NC(=O)[C@H](CO)NC(=O)[C@@H](NC(=O)[C@H](Cc1ccccc1)NC(=O)[C@@H](NC(=O)CNC(=O)[C@@H](N)CCC(=O)O)[C@@H](C)O)[C@@H](C)CC)[C@@H](C)CC)[C@@H](C)CC)C(=O)N[C@@H](CCC(N)=O)C(=O)N[C@@H](CCC(N)=O)C(=O)N[C@@H](CC(=O)O)C(=O)N[C@@H](Cc1ccccc1)C(=O)N[C@H](C(=O)N[C@@H](CC(N)=O)C(=O)N[C@@H](Cc1c[nH]c2ccccc12)C(=O)N[C@@H](CC(C)C)C(=O)N[C@@H](CC(C)C)C(=O)N[C@@H](C)C(=O)N[C@@H](CCC(N)=O)C(=O)N[C@@H](CCCCN)C(N)=O)C(C)C [AT143, [hGIP(3-30)NH2[M14L; H18K]-C16/18]] (H-EGTFISDYSIALDKIK(Palmitoyl)QQDFVNWLLAQK-NH2; N-terminus assumed) | – | – | 7.10 | 40% | – | – | – | – | – | 15 nM | 86.1 nM | 105 nM | 7.06 | 11 fold | 1.2 fold | 0.3 fold | – | – | – |
| CC[C@H](C)[C@H](NC(=O)[C@H](CO)NC(=O)[C@H](Cc1ccc(O)cc1)NC(=O)[C@H](CC(=O)O)NC(=O)[C@H](CO)NC(=O)[C@@H](NC(=O)[C@H](Cc1ccccc1)NC(=O)[C@@H](N)[C@@H](C)O)[C@@H](C)CC)C(=O)N[C@@H](C)C(=O)N[C@@H](CCSC)C(=O)N[C@@H](CC(=O)O)C(=O)N[C@@H](CCCCN)C(=O)N[C@H](C(=O)N[C@@H](CCCCNC(=O)CCCCCCCCCCCCCCC(=O)O)C(=O)N[C@@H](CCC(N)=O)C(=O)N[C@@H](CCC(N)=O)C(=O)N[C@@H](CC(=O)O)C(=O)N[C@@H](Cc1ccccc1)C(=O)N[C@H](C(=O)N[C@@H](CC(N)=O)C(=O)N[C@@H](Cc1c[nH]c2ccccc12)C(=O)N[C@@H](CC(C)C)C(=O)N[C@@H](CC(C)C)C(=O)N[C@@H](C)C(=O)N[C@@H](CCC(N)=O)C(=O)N[C@@H](CCCCN)C(N)=O)C(C)C)[C@@H](C)CC [AT156, [hGIP(5-30)NH2[H18K]-C16diacid/18]] (H-TFISDYSIAMDKIK(C16 diacid)QQDFVNWLLAQK-NH2; N-terminus assumed) | – | – | – | 12% | – | 5 nM | – | 5.8 | 0.9 | 12 nM | – | – | – | – | – | – | 29 nM | 2 nM | 7.62 |
| CC[C@H](C)[C@H](NC(=O)[C@H](CO)NC(=O)[C@H](Cc1ccc(O)cc1)NC(=O)[C@H](CC(=O)O)NC(=O)[C@H](CO)NC(=O)[C@@H](NC(=O)[C@H](Cc1ccccc1)NC(=O)[C@@H](NC(=O)CNC(=O)[C@@H](N)CCC(=O)O)[C@@H](C)O)[C@@H](C)CC)C(=O)N[C@@H](C)C(=O)N[C@@H](CCSC)C(=O)N[C@@H](CC(=O)O)C(=O)N[C@@H](CCCCN)C(=O)N[C@H](C(=O)N[C@@H](CCCCNC(=O)CCCCCCCCCCCCCCC(=O)O)C(=O)N[C@@H](CCC(N)=O)C(=O)N[C@@H](CCC(N)=O)C(=O)N[C@@H](CC(=O)O)C(=O)N[C@@H](Cc1ccccc1)C(=O)N[C@H](C(=O)N[C@@H](CC(N)=O)C(=O)N[C@@H](Cc1c[nH]c2ccccc12)C(=O)N[C@@H](CC(C)C)C(=O)N[C@@H](CC(C)C)C(=O)N[C@@H](C)C(=O)N[C@@H](CCC(N)=O)C(=O)N[C@@H](CCCCN)C(N)=O)C(C)C)[C@@H](C)CC [AT158, [hGIP(3-30)NH2[H18K]-C16diacid/18]] (H-EGTFISDYSIAMDKIK(C16 diacid)QQDFVNWLLAQK-NH2; N-terminus assumed) | – | – | – | 6% | – | – | – | – | – | 5 nM | 7.9 nM | 16 nM | 8.10 | 1 fold | 2.0 fold | 0.1 fold | – | – | – |
| CCCCCCCCCCCCCCCCCC(=O)NCCCC[C@H](NC(=O)[C@@H](NC(=O)[C@H](CCCCN)NC(=O)[C@H](CC(=O)O)NC(=O)[C@H](CCSC)NC(=O)[C@H](C)NC(=O)[C@@H](NC(=O)[C@H](CO)NC(=O)[C@H](Cc1ccc(O)cc1)NC(=O)[C@H](CC(=O)O)NC(=O)[C@H](CO)NC(=O)[C@@H](NC(=O)[C@H](Cc1ccccc1)NC(=O)[C@@H](NC(=O)CNC(=O)[C@@H](N)CCC(=O)O)[C@@H](C)O)[C@@H](C)CC)[C@@H](C)CC)[C@@H](C)CC)C(=O)N[C@@H](CCC(N)=O)C(=O)N[C@@H](CCC(N)=O)C(=O)N[C@@H](CC(=O)O)C(=O)N[C@@H](Cc1ccccc1)C(=O)N[C@H](C(=O)N[C@@H](CC(N)=O)C(=O)N[C@@H](Cc1c[nH]c2ccccc12)C(=O)N[C@@H](CC(C)C)C(=O)N[C@@H](CC(C)C)C(=O)N[C@@H](C)C(=O)N[C@@H](CCC(N)=O)C(=O)N[C@@H](CCCCN)C(N)=O)C(C)C [AT160, [hGIP(3-30)NH2[H18K]-C18/18]] (H-EGTFISDYSIAMDKIK(Stearoyl)QQDFVNWLLAQK-NH2; N-terminus assumed) | – | – | 7.31 | 13% | – | – | – | – | – | 38 nM | 48.8 nM | – | 7.31 | 6 fold | 3.6 fold | 0.7 fold | – | 962 nM | – |
